{"source": "paper PMC8148554", "about": "“Characterization and Regulation of the Acetolactate Synthase Genes Involved in Acetoin Biosynthesis in Acetobacter pasteurianus” (Foods, 2021)", "target": "T1, AlsS2 (Acetobacter pasteurianus, UniProt A0A401X088)", "T1 construct": "gene NBRC3278_0356; full length, gene 1695 bp (564 residues with stop codon in the gene); pET-22b(+) NdeI/XhoI, E. coli BL21(DE3), His tag (C-terminal by cloning, no stop in primer); about 59 kDa", "T1 sequence (A0A401X088 1-564)": "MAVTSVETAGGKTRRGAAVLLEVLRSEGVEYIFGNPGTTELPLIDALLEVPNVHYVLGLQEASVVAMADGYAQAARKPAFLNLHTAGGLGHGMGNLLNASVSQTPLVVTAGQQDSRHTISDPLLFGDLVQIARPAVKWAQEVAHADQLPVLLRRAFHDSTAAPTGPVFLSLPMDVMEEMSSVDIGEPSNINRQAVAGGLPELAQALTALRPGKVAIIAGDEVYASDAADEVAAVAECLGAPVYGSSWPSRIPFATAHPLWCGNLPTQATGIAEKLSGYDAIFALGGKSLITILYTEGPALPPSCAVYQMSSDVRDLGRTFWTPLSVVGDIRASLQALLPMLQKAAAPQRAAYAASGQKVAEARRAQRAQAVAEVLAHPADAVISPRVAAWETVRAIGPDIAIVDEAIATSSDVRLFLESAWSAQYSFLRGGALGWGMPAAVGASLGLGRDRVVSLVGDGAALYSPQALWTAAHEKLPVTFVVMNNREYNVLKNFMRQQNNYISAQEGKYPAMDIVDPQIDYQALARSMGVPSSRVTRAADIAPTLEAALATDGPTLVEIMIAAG", "assay": "GC detection of benzaldehyde formed", "assay_type": "biochemical", "settings": "10 mM benzoylformate, 0.5 mM MgCl2, 1 mM TPP, 100 mM sodium phosphate pH 7.0, 37 °C, 10 h"}
{"smiles": "O=C(O)C(=O)c1ccccc1", "note": "[benzoylformate]", "values": [{"measurement": "GC detection of benzaldehyde formed", "result": "Benzaldehyde was detected in the reaction mixture"}]}
